Measured values published in ChEMBL document CHEMBL3045967, “Discovery of imidazole glycerol phosphate dehydratase inhibitors through 3-D database searching” (Bioorg Med Chem Lett, 2002).
Active and inactive are the calls of the source. No cut-off for these calls is given here.

Legend:
[1] = target: Histidine biosynthesis bifunctional protein HisB (Escherichia coli O26:H11 str. CFSAN001629, UniProt P06987); test: (§1) Inhibition of Escherichia coli imidazoleglycerol phosphate dehydratase using imidazole glycerol phosphate as substrate incubated for 30 min prior to substrate addition measured for 16 min by spectrophotometric analysis
[2] = target: Histidine biosynthesis bifunctional protein HisB (Escherichia coli O26:H11 str. CFSAN001629) (UniProt P06987); test: as §1

Row | IC50 [1] | inhibition [2] | Structure (SMILES)
1 | 12.6 µM | – | CCOC(=O)CCc1c(C(=O)OCC)[nH]c(C=O)c1CC(=O)OCC
2 | 17.6 µM | – | CCOC(=O)c1[nH]c(C=O)c(C)c1C
3 | 5.6 µM | – | CCOC(=O)c1[nH]c(C=O)c(C(=O)OCC)c1CC
4 | – | inactive | CCOC(=O)c1[nH]c(C)c(C(=O)OC)c1C
5 | 8.3 µM | – | COC(=O)c1[nH]c(C=O)c(C(=O)OC)c1C(C)C
6 | 8.9 µM | – | Cc1c(C=O)[nH]c(C(=O)OCc2ccccc2)c1C
7 | 5.1 µM | – | CCOC(=O)c1[nH]c(C=O)c(C(=O)OCC)c1C
8 | 7.1 µM | – | Cc1c(C=O)[nH]c(C=O)c1C
9 | 24 µM | – | CCc1c(C=O)[nH]c(C(=O)OCc2ccccc2)c1C
10 | 9.2 µM | – | CCOC(=O)c1[nH]c(C=O)cc1C
11 | 4 µM | – | O=Cc1[nH]c(C(=O)OCc2ccccc2)c(Cc2ccccc2)c1Cc1ccccc1
